Columns and labels:
neutrophils = test: Migration test of neutrophils; format: cell-based; settings: purified human neutrophils; 2 hours
Description: Neutrophils were purified as follows. Blood was collected (50 ml) from healthy male adult volunteers. Then, 12.5 ml each of the collected blood was poured into a 50 ml tube containing 23 ml physiological saline, and, the total volume was adjusted to 40 ml with physiological saline. To a bottom of the tube, Percoll solution (specific gravity: 1.079±0.004, 10 ml) was gently added, and the mixture was centrifuged at 430×g, for 20 minutes at room temperature, without deceleration or acceleration.
After washing the eosinophils and neutrophils purified in the above sections, the cells were suspended in RPMI1640 supplemented with 0.1% BSA (not containing phenol red) which contains 3 μM Calcein-AM (Dojindo laboratories, fluorescence reagent), so that the cell count became 1×10^6 cells/ml. The suspension was incubated at 37° C. for 30 minutes. The cells were washed twice with the same culture medium, and suspended in the same medium so that the cell count became 1×10^6 cells/ml. […]
After the reaction, the chambers were removed, and to the lower chamber was added 66 μl of 10× lysis buffer (5% Triton X-100 dissolved in PBS, 10% ethanol). […] 200 μl of the cell lysate was transferred to 96 well black plate (237105, Nunc), and fluorescence intensities were measured using a fluorometer (ARVO™ SX, Wallac) with an excitation wavelength of 485 nm and a fluorescence wavelength of 535 nm.

TG1019 protein = test: Forskolin-stimulated cAMP production in CHO cells transiently expressing TG1019; format: cell-based, human
From the text: A TG1019 protein expression vector was transiently introduced to CHO cells to have a recombinant TG1019 protein expressed, and using these cells, a function of TG1019 protein as an eicosanoid receptor was confirmed.
At first, a DNA encoding an entire region of TG1019 protein obtained in Example 1 (1) mentioned above was subcloned in NotI recognition site of a vector plasmid pcDNA3.1 (an expression vector, available from Invitrogen), to obtain TG1019 protein expression vector plasmid pcDNA3.1-TG1019.
CHO cells (1×10^6 cells) were cultured in DMEM/F-12 culture medium supplemented with 10% fetal bovine serum at 37° C. for 20 hours. Using these cells, transfection was carried out by adding plasmid DNA (pcDNA3.1-TG1019, or as a control, vector pcDNA3.1) (5 μg) and transfection reagent (LipofectAMINE, available from Invitrogen), and the mixture was cultured for 24 hours. In case of using pretreatment with pertussis toxin, pertussis toxin (100 ng) was added after 20 hours of culture and the mixture was successively cultured for 4 hours.
The cells after culture were collected, washed, and suspended in a KRH buffer (Krebs-Ringer Hepes buffer, pH 7.4) containing rolipram (25 mM). The suspension was incubated at 37° C. for 30 minutes and inoculated in a 96 well plate (5-7.5×10^4 cells/90 μl/well).
Subsequently, KRH buffer (90 μl/well) containing forskolin (1 μM) and 5-oxo-ETE (the final concentration 0M or 10^−11 to 10^−5 M) was added thereto, and after the mixture was incubated at room temperature for 10 minutes, the cells were lysed to measure a cAMP production amount.
The cAMP production amount was measured using cAMP enzyme immunoassay system available from Amersham Biosciences.

[1] = system: TG1019 (5-oxo-ETE receptor); test: Migration test using CHO cells stably expressing TG1019; format: cell-based, human; settings: 5 hours
Description: The cells stably expressing TG1019 and the cells not expressing the same obtained in the above section (1) were cultured in a medium (DMEM/F12 medium supplemented with 10% fetal bovine serum [GibcoBRL]), containing 800 μg/ml of hygromycin B. The cells which were 80 to 90% confluent were dissociated by a cell dissociation buffer, and the cells were washed twice by centrifugation (600×g, 5 minutes, 4° C.) with 10 ml of RPMI1640 culture medium supplemented with 0.1% BSA Then, the cells were prepared to a concentration of 1×10^6 cells/ml in the same medium.
Cell migration test was carried out using 2 chambers for migration test (Transwell; 8 μm pore, 24 well, 3422 [Costar]). Chambers were set in a plate, and a solution (600 μl) containing 5-oxo-ETE was added to the lower chamber, and the cell solution (100 μl) was added to the upper chamber, to start the reaction. Migration was carried out at 37° C. for 5 hours in a CO2 incubator.
The chambers were removed, and […] of the solution in the lower chamber was transferred to a tube, and centrifuged at 600×g, 3 minutes, 4° C. 300 μl of the supernatant was removed, and RPMI1640 culture medium supplemented with 0.1% BSA (not containing phenol red) was added, if needed, to adjust a volume of the cell solution to 300 μl. The number of the cells migrated to the lower chamber were counted by flow cytometer.

SMILES: CCCCC/C=C\C/C=C\C/C=C\C=C\C(=O)CCCC(=O)O [5-oxo-ETE, 5-oxo-6E,8Z,11Z,14Z-eicosatetraenoic acid]
- migration of neutrophils (neutrophils): has an ability to make these cells migrate
- cAMP production amount upon forskolin stimulation (TG1019 protein; CHO cells with pcDNA3.1-TG1019 introduced, forskolin 1 μM, concentration-dependent): inhibited
- cAMP production (TG1019 protein; TG1019-expressing CHO cells pretreated with pertussis toxin): not inhibited
- cAMP production amount upon forskolin stimulation (TG1019 protein; control CHO cells with only vector introduced): not changed
- cell migration ([1]; cells not expressing TG1019): did not
- cell migration ([1]; cells stably expressing TG1019): showed 5-oxo-ETE-induced migration

Source: patent US7527935B2, “G-protein coupled receptor having eicosanoid as ligand and gene thereof” (Mitsubishi Tanabe Pharma Corporation, priority 2002, dated 2009)
